Our source for the Control % values is patent US20250113826A1, “AN AGROCHEMICAL COMBINATION” (UPL LIMITED, priority 2021, published 2025).

Holding throughout (format): in vivo
One assay relates to weedy Glycine max. Nature of the assay: Greenhouse post-emergence herbicidal efficacy on weedy Glycine max. On the procedure: (§1) Evaluation of Post-Emergence Herbicidal Activity of Combinations Under Field Conditions
(§2) Methodology: Greenhouse trials were carried out to evaluate the efficacy of the combination of L-glufosinate and the other herbicides on weeds such as Glycine max, Spermacoce verticilata, Eleusine indica, Brachiaria decumbens. The soil used was sandy clay loam—Sand: 68.0%; Silt: 8.0%; Clay: 24.0%. All treatments were conducted in 4 replications per treatment with a spray volume of […].
(§3) The expected efficacy of a combination of L-glufosinate and the other herbicides was calculated using the well-established Colby method. Any difference between the observed and “expected” efficacy could be attributed to synergy between the two compounds.
(§4) In the Colby method, the expected (or predicted) response of a combination of herbicides is calculated by taking the product of the observed response for each individual component of the combination when applied alone, divided by 100, and subtracting this value from the sum of the observed response for each component when applied alone. An unexpected enhancement in efficacy of the combination is then determined by comparing the observed response of the combination to the expected (or predicted) response as calculated from the observed response of each individual component alone. If the observed response of the combination is greater than the expected (or predicted) response, or stated conversely, if the difference between the observed and expected response is greater than zero, then the combination is said to be synergistic or unexpectedly effective (Colby, S. R., Weeds, 1967(15), p. 20-22). The Colby method requires only a single dose of each herbicide applied alone and the mixture of both doses. The formula used to calculate the expected efficacy (EE) which was compared with the observed efficacy (OE) to determine the efficacy of the present invention is explained hereinbelow:
(§5) The expected efficacy for a combination of two active ingredients is as follows:
(§6) The expected efficacy for a combination of three active ingredients is as follows:
(§7) Where, • A=Observed efficacy of active ingredient A at the same concentration as used in the mixture. • B=Observed efficacy of the active ingredient B at the same concentration as used in the mixture. • C=Observed efficacy of the active ingredient C at the same concentration as used in the mixture.

The test system of the next assay is Eleusine indica. Nature of the assay: Greenhouse post-emergence herbicidal efficacy on Eleusine indica. As for the experimental part: as §1, §2, §3, §4, §5, §6, §7
For another assay, the system named is Spermacoce latifolia. Nature of the assay: Greenhouse post-emergence herbicidal efficacy on Spermacoce latifolia. The note with it: L-glufosinate 150, imazethapyr 75, carfentrazone 7.5 g a.i./h. As for the experimental part: as §1, §2, §3, §4, §5, §6, §7
The next assay concerns Brachiaria decumbens. Briefly: Greenhouse post-emergence herbicidal efficacy on Brachiaria decumbens. On the procedure:
as §1, §2, §3, §4, §5, §6, §7

The subject of the next assay is Borreria verticillata. Nature of the assay: Greenhouse post-emergence herbicidal efficacy on Borreria verticillata. As to conditions: L-glufosinate 150, imazapic and imazapyr 31.5 + 10.5 g a.i./h. As for the experimental part: as §1, §2, §3, §4, §5, §6, §7
The next assay concerns Amaranthus viridus. Briefly: Greenhouse post-emergence herbicidal efficacy on Amaranthus viridus. As to conditions: Table 11, 3 DAA, L-glufosinate 150, imazapic and imazapyr 31.5 + 10.5 g a.i./h. On the procedure:
as §1, §2, §3
In the Colby method, the expected (or predicted) response of a combination of herbicides is calculated by taking the product of the observed response for each individual component of the combination when applied alone, divided by 100, and subtracting this value from the sum of the observed response for each component when applied alone. An unexpected enhancement in efficacy of the combination is then determined by comparing the observed response of the combination to the expected (or predicted) response as calculated from the observed response of each individual component alone. […]

[1] abbreviates: Table 9, 21 DAA, L-glufosinate 150, saflufenacil 30, 2,4 D 228 g a.i./h.
Where [2] appears, read: Table 9, 28 DAA, L-glufosinate 150, saflufenacil 30, 2,4 D 228 g a.i./h.
[3] abbreviates: Table 9, 35 DAA, L-glufosinate 150, saflufenacil 30, 2,4 D 228 g a.i./h.
[4] abbreviates: Table 3, 14 DAA, L-glufosinate 150, imazethapyr 75, carfentrazone 7.5 g a.i./h.
The mark [5] stands for this setting: Table 3, 21 DAA, L-glufosinate 150, imazethapyr 75, carfentrazone 7.5 g a.i./h.
The mark [6] stands for this setting: Table 3, 28 DAA, L-glufosinate 150, imazethapyr 75, carfentrazone 7.5 g a.i./h.
Where [7] appears, read: Table 3, 35 DAA, L-glufosinate 150, imazethapyr 75, carfentrazone 7.5 g a.i./h.
Where [8] appears, read: Table 4, 3 DAA, L-glufosinate 150, imazethapyr 75, carfentrazone 7.5 g a.i./h.
Where [9] appears, read: Table 4, 7 DAA, L-glufosinate 150, imazethapyr 75, carfentrazone 7.5 g a.i./h.
[10] abbreviates: Table 4, 14 DAA, L-glufosinate 150, imazethapyr 75, carfentrazone 7.5 g a.i./h.
The mark [11] stands for this setting: Table 4, 21 DAA, L-glufosinate 150, imazethapyr 75, carfentrazone 7.5 g a.i./h.
[12] abbreviates: Table 4, 28 DAA, L-glufosinate 150, imazethapyr 75, carfentrazone 7.5 g a.i./h.
The mark [13] stands for this setting: Table 4, 35 DAA, L-glufosinate 150, imazethapyr 75, carfentrazone 7.5 g a.i./h.
The mark [14] stands for this setting: Table 6, 7 DAA, L-glufosinate 150, imazethapyr 75, carfentrazone 7.5 g a.i./h.
The mark [15] stands for this setting: Table 6, 14 DAA, L-glufosinate 150, imazethapyr 75, carfentrazone 7.5 g a.i./h.
The mark [16] stands for this setting: Table 6, 21 DAA, L-glufosinate 150, imazethapyr 75, carfentrazone 7.5 g a.i./h.
Setting [17] is: Table 6, 28 DAA, L-glufosinate 150, imazethapyr 75, carfentrazone 7.5 g a.i./h.
The mark [18] stands for this setting: Table 6, 35 DAA, L-glufosinate 150, imazethapyr 75, carfentrazone 7.5 g a.i./h.
Setting [19] is: Table 7, 7 DAA, L-glufosinate 150, saflufenacil 30, triclopyr 228 g a.i./h.
The mark [20] stands for this setting: Table 8, 7 DAA (head; title says 3 days), L-glufosinate 150, saflufenacil 30, triclopyr 228 g a.i./h.

For the compound `O=C(O)COc1ccc(Cl)cc1Cl` [2,4 D, 2,4-D], the Control % with weedy Glycine max (setting [1]) worked out at 49.3%; with weedy Glycine max (setting [2]), 43.8%; in the assay on weedy Glycine max (setting [3]), 41%.

As for `Cc1nn(-c2cc(CC(Cl)C(=O)O)c(Cl)cc2F)c(=O)n1C(F)F` (stereo not shown) [Carfentrazone, carfentrazone], the Control % with weedy Glycine max (setting [4]) is recorded as 50.3%; in the assay on weedy Glycine max (setting [5]), 44.3%; in the assay on weedy Glycine max (setting [6]), 44.3%; with weedy Glycine max (setting [7]) it was 39.3%; in the assay with Eleusine indica (setting [8]), 8.7%; with Eleusine indica (setting [9]), 14%. In addition, the Control % worked out at 12.3% with Eleusine indica (setting [10]); 11% with Eleusine indica (setting [11]); 7.7% with Eleusine indica (setting [12]); 0% in the assay on Eleusine indica (setting [13]); 58.3% with Spermacoce latifolia (Table 5, 7 DAA); 64.3% with Spermacoce latifolia (Table 5, 14 DAA). Moreover, the Control % with Spermacoce latifolia (Table 5, 21 DAA) stood at 64.3%; with Spermacoce latifolia (Table 5, 28 DAA), 64.3%; in the assay with Spermacoce latifolia (Table 5, 35 DAA), 63.3%; in the assay with Brachiaria decumbens (setting [14]), 14%; in the assay with Brachiaria decumbens (setting [15]) it was 16.7%; in the assay with Brachiaria decumbens (setting [16]) it was 15%. For the same compound, the Control % in the assay on Brachiaria decumbens (setting [17]) came to 5%; in the assay on Brachiaria decumbens (setting [18]), 0%.

In the case of `CCc1cnc(C2=NC(C)(C(C)C)C(=O)N2)c(C(=O)O)c1` (stereo not shown) [Imazethapyr, imazethapyr], the Control % was 10% with weedy Glycine max (setting [4]); 20.0% in the assay with weedy Glycine max (setting [5]); 20.0% in the assay on weedy Glycine max (setting [6]); 15.0% with weedy Glycine max (setting [7]); 3.7% with Eleusine indica (setting [8]); 8.3% in the assay with Eleusine indica (setting [9]). In addition, the Control % amounted to 12% with Eleusine indica (setting [10]); 12.7% in the assay on Eleusine indica (setting [11]); 12.7% in the assay with Eleusine indica (setting [12]); 10% in the assay with Eleusine indica (setting [13]); 13.3% in the assay with Spermacoce latifolia (Table 5, 7 DAA); 30% in the assay with Spermacoce latifolia (Table 5, 14 DAA). Besides, the Control % with Spermacoce latifolia (Table 5, 21 DAA) is listed as 36.7%; in the assay on Spermacoce latifolia (Table 5, 28 DAA) it was 30%; with Spermacoce latifolia (Table 5, 35 DAA), 26.7%; with Brachiaria decumbens (setting [14]) it was 10%; in the assay with Brachiaria decumbens (setting [15]) it was 10%; in the assay with Brachiaria decumbens (setting [16]), 15%. The figures for the Control % with Brachiaria decumbens (setting [17]) and in the assay on Brachiaria decumbens (setting [18]) were 10% and 5%, respectively.

As to `CP(=O)(O)CC[C@H](N)C(=O)O` [L-glufosinate, (S)-2-amino-4-(hydroxy(methyl)phosphonyl)butanoic acid], the Control % in the assay on weedy Glycine max (setting [4]) came to 60%; in the assay on weedy Glycine max (setting [5]), 63.3%; with weedy Glycine max (setting [6]), 63.3%; with weedy Glycine max (setting [7]), 52.7%; in the assay on weedy Glycine max (setting [19]), 71.9%; in the assay with weedy Glycine max (setting [1]), 57.5%. Also, the Control % with weedy Glycine max (setting [2]) worked out at 50.6%; in the assay with weedy Glycine max (setting [3]), 47.5%; in the assay with Eleusine indica (setting [8]) it was 15%; in the assay on Eleusine indica (setting [9]), 43.3%; in the assay on Eleusine indica (setting [10]), 41.3%; in the assay on Eleusine indica (setting [11]), 37.3%. In addition, the Control % in the assay with Eleusine indica (setting [12]) was found to be 28.3%; in the assay on Eleusine indica (setting [13]) it was 25.3%; in the assay with Eleusine indica (Table 12, 3 DAA, L-glufosinate 150, imazapic and imazapyr 31.5 + 10.5 g a.i./h), 40%; in the assay on Eleusine indica (Table 12, 7 DAA, L-glufosinate 150, imazapic and imazapyr 31.5 + 10.5 g a.i./h), 50%; in the assay on Eleusine indica (Table 12, 14 DAA, L-glufosinate 150, imazapic and imazapyr 31.5 + 10.5 g a.i./h) it was 40%; in the assay with Spermacoce latifolia (Table 5, 7 DAA), 35%. In addition, the Control % with Spermacoce latifolia (Table 5, 14 DAA) came out at 56.7%; in the assay on Spermacoce latifolia (Table 5, 21 DAA) it was 56.7%; in the assay with Spermacoce latifolia (Table 5, 28 DAA), 58.3%; in the assay with Spermacoce latifolia (Table 5, 35 DAA), 58.3%; in the assay with Brachiaria decumbens (setting [14]) it was 46%; in the assay with Brachiaria decumbens (setting [15]), 54.3%. Further, the Control % is 53.3% with Brachiaria decumbens (setting [16]); 48.3% in the assay on Brachiaria decumbens (setting [17]); 42% with Brachiaria decumbens (setting [18]); 66.2% in the assay with Brachiaria decumbens (setting [20]); 50% with Borreria verticillata (Table 10, 3 DAA); 80% in the assay on Borreria verticillata (Table 10, 7 DAA). Further, the Control % in the assay with Borreria verticillata (Table 10, 14 DAA) amounted to 95%; in the assay on Borreria verticillata (Table 10, 21 DAA), 90%; in the assay on Borreria verticillata (Table 10, 28 DAA) it was 90%; with Borreria verticillata (Table 10, 35 DAA) it was 85%; in the assay on Amaranthus viridus, 50%.

In the case of `CC(C)N(C)S(=O)(=O)NC(=O)c1cc(-n2c(=O)cc(C(F)(F)F)n(C)c2=O)c(F)cc1Cl` [Saflufenacil, saflufenacil], the Control % in the assay on weedy Glycine max (setting [19]) is given as 75.4%; in the assay on weedy Glycine max (setting [1]), 63.2%; in the assay with weedy Glycine max (setting [2]), 52.5%; in the assay with weedy Glycine max (setting [3]) it was 50.7%; in the assay on Brachiaria decumbens (setting [20]), 30%.

As to `O=C(O)COc1nc(Cl)c(Cl)cc1Cl` [Triclopyr, triclopyr], the results for the Control % in the assay on weedy Glycine max (setting [19]) and in the assay on Brachiaria decumbens (setting [20]) were 67.9% and 0%, respectively.
